According to paper PMC12263876, “DDX39B K63-linked ubiquitination mediated by TRIM28 promotes NSCLC metastasis by enhancing ECAD lysosomal degradation” (Signal Transduction and Targeted Therapy, 2025):

Target: T1, DDX39B (Homo sapiens, UniProt Q13838)
T1 construct: His-DDX39B
Assay: SPR (KD […]); also BLI with biotinylated His-DDX39B (KD […]) and CETSA in NSCLC cells
Format: binding

T1 sequence (Q13838 2-428): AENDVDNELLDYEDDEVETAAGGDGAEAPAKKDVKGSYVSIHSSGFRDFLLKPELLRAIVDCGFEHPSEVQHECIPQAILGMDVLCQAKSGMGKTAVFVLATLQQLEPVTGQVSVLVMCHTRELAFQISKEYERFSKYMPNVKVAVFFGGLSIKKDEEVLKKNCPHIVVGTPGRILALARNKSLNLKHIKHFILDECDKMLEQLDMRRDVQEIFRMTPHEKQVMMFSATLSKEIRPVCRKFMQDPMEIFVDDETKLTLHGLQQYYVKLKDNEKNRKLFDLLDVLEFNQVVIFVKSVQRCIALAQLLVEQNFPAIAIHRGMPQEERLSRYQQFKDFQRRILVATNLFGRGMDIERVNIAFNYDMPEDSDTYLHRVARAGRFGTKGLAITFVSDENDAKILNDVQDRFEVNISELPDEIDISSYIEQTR

Q: Which Kd does the source give for C[C@H]1[C@H](OC(=O)CCC(=O)O)O[C@@H]2O[C@@]3(C)CC[C@H]4[C@H](C)CC[C@@H]1[C@@]24OO3 [artesunate] here?
A: Its Kd is 3.23 µM.
